Consider 30 molecules from patent publication US7348425B2, “Inhibitors of HCV replication” (Bristol-Myers Squibb Company, priority 2004, dated 2008).

Molecules are shown by their SMILES. Some results are limits rather than exact numbers.

Assay [1] has as its target T1, HCV NS5B RdRp genotype 1b (Hepatitis C virus genotype 1b, UniProt Q9WMX2).
T1 construct: The protein was expressed with an 18 amino acid C-terminal truncation to enhance the solubility; made in house; host or cells: E. coli BL21 (DE3), pET21a
In words: Standard HCV NS5B RdRp enzyme assay. The format is biochemical. The settings on record: standard method. The procedure:
HCVNS5B RdRp cloning, expression, and purification. The cDNA encoding the NS5B protein of HCV, genotype 1b, was cloned into the pET21a expression vector. The protein was expressed with an 18 amino acid C-terminal truncation to enhance the solubility. The E. coli competent cell line BL21 (DE3) was used for expression of the protein. Cultures were grown at 37° C. for ˜4 hours until the cultures reached an optical density of 2.0 at 600 nm. The cultures were cooled to 20° C. and induced with 1 mM IPTG. Fresh ampicillin was added to a final concentration of 50 μg/ml and the cells were grown overnight at 20° C.
Cell pellets (3 L) were lysed for purification to yield 15-24 mgs of purified NS5B. The lysis buffer consisted of 20 mM Tris-HCl, pH 7.4, 500 mM NaCl, 0.5% triton X-100, 1 mM DTT, 1 mM EDTA, 20% glycerol, 0.5 mg/ml lysozyme, 10 mM MgCl2, 15 ug/ml deoxyribonuclease I, and Complete TM protease inhibitor tablets (Roche). After addition of the lysis buffer, frozen cell pellets were resuspended using a tissue homogenizer. To reduce the viscosity of the sample, aliquots of the lysate were sonicated on ice using a microtip attached to a Branson sonicator. The sonicated lysate was centrifuged at 100,000×g for 1 hr at 4° C. and filtered through a 0.2 μm filter unit (Corning).
The protein was purified using three sequential chromatography steps: Heparin sepharose CL-6B, polyU sepharose 4B, and Hitrap SP sepharose (Pharmacia). The chromatography buffers were identical to the lysis buffer but contained no lysozyme, deoxyribonuclease I, MgCl2 or protease inhibitor and the NaCl concentration of the buffer was adjusted according to the requirements for charging the protein onto the column. Each column was eluted with a NaCl gradient which varied in length from 5-50 column volumes depending on the column type. After the final chromatography step, the resulting purity of the enzyme is >90% based on SDS-PAGE analysis. The enzyme was aliquoted and stored at −80° C.
Standard HCV NS5B RdRp enzyme assay. HCV RdRp genotype Ib assays were run in a final volume of 60 μl in 96 well plates (Costar 3912). The assay buffer is composed of 20 mM Hepes, pH 7.5, 2.5 mM KCl, 2.5 mM MgCl2, 1 mM DTT, 1.6 U RNAse inhibitor (Promega N2515), 0.1 mg/ml BSA (Promega R3961), and 2% glycerol. All compounds were serially diluted (3-fold) in DMSO and diluted further in water such that the final concentration of DMSO in the assay was 2%. HCV RdRp genotype 1b enzyme was used at a final concentration of 28 nM. A polyA template was used at 6 nM, and a biotinylated oligo-dT12 primer was used at 180 nM final concentration. Template was obtained commercially (Amersham 27-4110). Biotinylated primer was prepared by Sigma Genosys. ^3H-UTP was used at 0.6 μCi (0.29 μM total UTP). Reactions were initiated by the addition of enzyme, incubated at 30° C. for 60 min, and stopped by adding 25 μl of 50 mM EDTA containing SPA beads (4 μg/μl, Amersham RPNQ 0007). Plates were read on a Packard Top Count NXT after >1 hr incubation at room temperature.
The IC50 values for compounds were determined using seven different [I]. IC50 values were calculated from the inhibition using the formula y=A+((B−A)/(1+((C/x)^D))). FRET Assay Preparation. To perform the HCV FRET screening assay, 96-well cell culture plates were used. The FRET peptide (Anaspec, Inc.) (Taliani et al., Anal. Biochem. 240:60-67 (1996), hereby incorporated by reference in its entirety) contains a fluorescence donor, EDANS, near one end of the peptide and an acceptor, DABCYL, near the other end. The fluorescence of the peptide is quenched by […] resonance energy transfer (RET) between the donor and the acceptor, but as the NS3 protease cleaves the peptide the products are released from RET quenching and the fluorescence of the donor becomes apparent. […]

Another assay deals with HCV replicon. Put plainly: HCV replicon luciferase assay. The class given is cell-based, Hepatitis C virus. To be noted: Hepatitis C virus, luciferase method; read-out: EC50. The procedure: To prepare plates, HCV replicon cells, with or without a Renilla luciferase reporter gene, were trypsinized and placed into each well of a 96-well plate with titrated test compounds added in columns 3 through 12; columns 1 and 2 contained a control compound (HCV protease inhibitor), and the bottom row contained cells without compound. The plates were then placed in a CO2 incubator at 37 degrees C.
Assays. Subsequent to addition of the test compounds described above (FRET Assay Preparation), at various times the plate was removed and Alamar blue solution (Trek Diagnostics, #00-100) was added per well as a measure of cellular toxicity. After reading in a Cytoflour 4000 instrument (PE Biosystems), plates were rinsed with PBS and then used for FRET assay by the addition of 30 ul of the FRET peptide assay reagent described above (FRET Assay Preparation) per well. The plate was then placed into the Cytoflour 4000 instrument which had been set to 340 excite/490 emission, automatic mode for 20 cycles and the plate read in a kinetic mode. Typically, the signal to noise using an endpoint analysis after the reads was at least three-fold. Alternatively, after Alamar blue reading, plates were rinsed with PBS, 50 ul of DMEM (high glucose) without phenol red was added and plates were then used for luciferase assay using the Promega Dual-Glo Luciferase Assay System.
Compound analysis was determined by quantification of the relative HCV replicon inhibition and the relative cytotoxicity values. To calculate cytoxicity values, the average Alamar Blue fluorescence signals from the control wells were set as 100% non-toxic. The individual signals in each of the compound test wells were then divided by the average control signal and multiplied by 100% to determine […]. To calculate the HCV replicon inhibition values, an average background value was obtained from the two wells containing the highest amount of HCV protease inhibitor at the end of the assay period. These numbers were similar to those obtained from naïve Huh-7 cells.
The background numbers were then subtracted from the average signal obtained from the control wells and this number was used as 100% activity. The individual signals in each of the compound test wells were then divided by the averaged control values after background subtraction and multiplied by 100% to determine percent activity. EC50 values for a protease inhibitor titration were calculated as the concentration which caused a 50% reduction in FRET or luciferase activity. The two numbers generated for the compound plate, percent cytoxicity and percent activity were used to determine compounds of interest for further analysis.
(Replicon systems follow genome replication, usually without infectious particles.)

A word on the IC50: it is the concentration that inhibits the measured activity by half. Higher therefore signals lower potency. The term EC50 denotes the concentration needed to bring the measured effect to its halfway point.

T1 sequence (Q9WMX2 2420-2992): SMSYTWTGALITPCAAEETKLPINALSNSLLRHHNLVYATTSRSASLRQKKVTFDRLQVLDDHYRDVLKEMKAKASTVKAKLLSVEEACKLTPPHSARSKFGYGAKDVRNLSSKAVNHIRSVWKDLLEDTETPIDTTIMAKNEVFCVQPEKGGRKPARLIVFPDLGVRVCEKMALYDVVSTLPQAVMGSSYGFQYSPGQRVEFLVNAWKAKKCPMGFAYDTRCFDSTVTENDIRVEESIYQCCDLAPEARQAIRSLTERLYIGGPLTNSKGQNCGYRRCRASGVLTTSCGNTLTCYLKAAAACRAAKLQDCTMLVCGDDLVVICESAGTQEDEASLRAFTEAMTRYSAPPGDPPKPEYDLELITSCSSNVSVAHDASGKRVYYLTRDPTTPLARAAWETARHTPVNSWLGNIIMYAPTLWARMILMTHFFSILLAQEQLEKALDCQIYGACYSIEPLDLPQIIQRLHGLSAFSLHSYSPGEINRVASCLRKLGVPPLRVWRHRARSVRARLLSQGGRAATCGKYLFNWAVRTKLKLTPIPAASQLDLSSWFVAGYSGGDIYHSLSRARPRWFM

With `O=C(O)c1ccc2c(C3CCCCC3)c3n(c2c1)CC=Cc1ncccc1-3`, in assay [1], the IC50 is more than 1000 nM. Also, the concentration giving a half-maximal response (EC50) in the assay on HCV replicon was in the range of 1000 to 10000 nM.
The matching figures for `O=C(O)c1ccc2c(C3CCCCC3)c3n(c2c1)CCCc1ncccc1-3`: 100 to 1000 nM and 100 to 1000 nM.
The matching figures for `O=C(O)C1=Cc2ccccc2-c2c(C3CCCCC3)c3ccc(C(=O)O)cc3n2C1`: 100 to 1000 nM and more than 10000 nM.
The matching figures for `CN(C)S(=O)(=O)NC(=O)c1ccc2c(C3CCCCC3)c3n(c2c1)CCCc1ccccc1-3`: 100 to 1000 nM and 100 to 1000 nM.
As for `Cn1cnc(S(=O)(=O)NC(=O)c2ccc3c(C4CCCCC4)c4n(c3c2)CCCc2ccccc2-4)c1`, the IC50 in assay [1] is more than 1000 nM. The concentration giving a half-maximal response (EC50) in the assay with HCV replicon lay in the range of 1000 to 10000 nM.
The matching figures for `O=C1Cn2c(c(C3CCCCC3)c3ccc(C(=O)NS(=O)(=O)C4CC4)cc32)-c2ccccc2N1`: 100 to 1000 nM and 100 to 1000 nM.
The matching figures for `CCOC(=O)/C=C/c1ccc(NC(=O)C2(NC(=O)c3ccc4c(C5CCCCC5)c5n(c4c3)CCCc3ncccc3-5)CCCC2)cc1`: more than 1000 nM and less than 100 nM.
The matching figures for `O=C(O)/C=C/c1ccc(NC(=O)C2(NC(=O)c3ccc4c(C5CCCCC5)c5n(c4c3)CCCc3ncccc3-5)CCCC2)cc1`: 100 to 1000 nM and less than 100 nM.
Molecule `COC(=O)/C=C/c1ccc(NC(=O)C2(NC(=O)c3ccc4c(C5CCCCC5)c5n(c4c3)CCOc3cccnc3-5)CCCC2)cc1` had a concentration for half-maximal inhibition (IC50) in assay [1] of more than 1000 nM. The concentration giving a half-maximal response (EC50) with HCV replicon was 100 to 1000 nM.
The matching figures for `O=C(O)/C=C/c1ccc(NC(=O)C2(NC(=O)c3ccc4c(C5CCCCC5)c5n(c4c3)CCOc3cccnc3-5)CCCC2)cc1`: 100 to 1000 nM and less than 100 nM.
In assay [1], `CC(C)(C)OC(=O)/C=C/c1ccc(NC(=O)C2(NC(=O)c3ccc4c(C5CCCCC5)c5n(c4c3)CC(=O)Nc3cccnc3-5)CCCC2)cc1` returned an IC50 of more than 1000 nM. Further, in the assay on HCV replicon, the EC50 lay in the range of 100 to 1000 nM.
The matching figures for `O=C(O)/C=C/c1ccc(NC(=O)C2(NC(=O)c3ccc4c(C5CCCCC5)c5n(c4c3)CCOc3ccccc3-5)CCCC2)cc1`: 100 to 1000 nM and less than 100 nM.
On to `O=C(O)/C=C/c1ccc(NC(=O)C2(NC(=O)c3ccc4c(C5CCCCC5)c5n(c4c3)CC=Cc3ccccc3-5)CCCC2)cc1`, for which, in assay [1], the IC50 lay in the range of 100 to 1000 nM. Further, the 50% effective concentration (EC50) in the assay on HCV replicon was less than 100 nM.
The matching figures for `O=C(O)/C=C/c1ccc(NC(=O)C2(NC(=O)c3ccc4c(C5CCCCC5)c5n(c4c3)CCCCNc3ccccc3-5)CCCC2)cc1`: more than 1000 nM and less than 100 nM.
The matching figures for `O=C(O)/C=C/c1ccc(NC(=O)C2(NC(=O)c3ccc4c(C5CCCCC5)c5n(c4c3)CC(=O)Nc3cccnc3-5)CCCC2)cc1`: 100 to 1000 nM and less than 100 nM.
For `NC(=O)C1Cc2ccccc2-c2c(C3CCCCC3)c3ccc(C(=O)O)cc3n2C1` (stereo not drawn), in assay [1], the 50% inhibitory concentration (IC50) lay in the range of 100 to 1000 nM. Moreover, in the assay on HCV replicon, the EC50 was in the range of 100 to 1000 nM.
In turn, `CNC(=O)C1Cc2ccccc2-c2c(C3CCCCC3)c3ccc(C(=O)O)cc3n2C1` (stereo not drawn) registered an IC50 in assay [1] of 100 to 1000 nM. In the assay on HCV replicon, the EC50 was 100 to 1000 nM.
`CN(C)C(=O)C1Cc2ccccc2-c2c(C3CCCCC3)c3ccc(C(=O)O)cc3n2C1` (stereo not drawn) returned an IC50 in assay [1] of 100 to 1000 nM. For the same molecule, in the assay with HCV replicon, the EC50 lay in the range of 100 to 1000 nM.
The molecule `O=C(O)c1ccc2c(C3CCCCC3)c3n(c2c1)CC(C(=O)NCCO)Cc1ccccc1-3` (stereo not drawn) returned an IC50 in assay [1] of 100 to 1000 nM. Further, in the assay with HCV replicon, the EC50 is 100 to 1000 nM.
Regarding `CN(C)CCNC(=O)C1Cc2ccccc2-c2c(C3CCCCC3)c3ccc(C(=O)O)cc3n2C1` (stereo not drawn), the IC50 in assay [1] was 100 to 1000 nM. Moreover, the EC50 in the assay with HCV replicon fell in the range of 100 to 1000 nM.
As for `CN(C)CCNC(=O)C1Cc2ccccc2-c2c(C3CCCCC3)c3ccc(C(=O)NS(=O)(=O)N(C)C)cc3n2C1` (stereo not drawn), the IC50 in assay [1] is 100 to 1000 nM. Moreover, the EC50 in the assay with HCV replicon is 100 to 1000 nM.
As to `CN1CCN(C(=O)C2Cc3ccccc3-c3c(C4CCCCC4)c4ccc(C(=O)O)cc4n3C2)CC1` (stereo not drawn), in assay [1], the IC50 was in the range of 100 to 1000 nM. Besides, in the assay with HCV replicon, the 50% effective concentration (EC50) lay within 100 to 1000 nM.
In turn, `O=C(O)c1ccc2c(C3CCCCC3)c3n(c2c1)CC(C(=O)N1CCC(N2CCCC2)CC1)Cc1ccccc1-3` (stereo not drawn) came in with an IC50 in assay [1] of 100 to 1000 nM. Besides, in the assay on HCV replicon, the EC50 fell in the range of 100 to 1000 nM.
Consider `COC(=O)c1ccc2c(C3CCCCC3)c3n(c2c1)CCCc1ccccc1-3` [Example 2, Methyl 13-cyclohexyl-6,7-dihydro-5H-indolo[2,1-a][2]benzazepine-10-carboxylate], for which, in assay [1], the IC50 is more than 1000 nM. In the assay with HCV replicon, the EC50 is more than 10000 nM.
Molecule `O=C(O)c1ccc2c(C3CCCCC3)c3n(c2c1)CCCc1ccccc1-3` [Example 3, 13-cyclohexyl-6,7-dihydro-5H-indolo[2,1-a][2]benzazepine-10-carboxylic acid] showed an IC50 in assay [1] of 100 to 1000 nM. Besides, the EC50 in the assay on HCV replicon lay within 100 to 1000 nM.
In assay [1], `COC(=O)c1ccc2c(C3CCCCC3)c3n(c2c1)Cc1ccccc1-3` [Example 6, Methyl 11-cyclohexyl-6H-isoindolo[2,1-a]indole-3-carboxylate] had an IC50 of more than 1000 nM. For the same molecule, the EC50 with HCV replicon was more than 10000 nM.
With `O=C(O)c1ccc2c(C3CCCCC3)c3n(c2c1)Cc1ccccc1-3` [Example 7], the concentration for half-maximal inhibition (IC50) in assay [1] fell in the range of 100 to 1000 nM. Moreover, the EC50 in the assay with HCV replicon was more than 10000 nM.
Molecule `COC(=O)c1ccc2c(C3CCCCC3)c3n(c2c1)C(O)c1ccccc1-3` (stereo not drawn) [Example 8] showed an IC50 in assay [1] of more than 1000 nM. Also, in the assay on HCV replicon, the EC50 was 1000 to 10000 nM.
The matching figures for `COC(=O)c1ccc2c(C3CCCCC3)c3n(c2c1)CC(=O)Nc1cccnc1-3` [Example 14, Methyl 13-cyclohexyl-6,7-dihydro-6-oxo-5H-pyrido[3′,2′:5,6][1,4]diazepino[1,7-a]indole-10-carboxylate]: more than 1000 nM and more than 10000 nM.
The matching figures for `O=C1Cn2c(c(C3CCCCC3)c3ccc(C(=O)O)cc32)-c2ncccc2N1` [Example 15, 13-cyclohexyl-6,7-dihydro-6-oxo-5H-pyrido[3′,2′:5,6][1,4]diazepino[1,7-a]indole-10-carboxylic acid]: 100 to 1000 nM and 1000 to 10000 nM.
